Experimental findings from patent publication USRE41253E1, “Antineoplastic combinations” (Wyeth, priority 2001, dated 2010) are described below.

In this test the test system is HCT 116 colon adenocarcinoma cells. The experiment in a line: Cell Proliferation Procedure (SRB, three days). The format is cell-based. Conditions: for IC50: growth for 3 days, SRB, single agent, read-out: IC50 value, drug alone. The procedure: Cell Proliferation Procedure—HCT 116 colon adenocarcinoma cells were maintained in RPMI 1640 medium (Life Technologies, Inc., Gaithersburg, Md.) supplemented with 10% fetal bovine serum (FBS, Life Technologies) and 50 μg/ml gentamicin (Life Technologies) under 7% CO2 at 37° C. Cells were plated in 96-well microtiter dishes (6000 cells/well) in 200 μl RPMI 1640 medium containing 5% FBS and 50 μg/ml gentamicin and incubated overnight at 37° C. Compound dilutions were prepared in the same medium, at 5× final concentration, and 50 μl of the drug dilution was added to the cell-containing wells. For studies involving combinations of two drugs, serial dilutions of one compound were prepared in the presence of a fixed dose of a second compound. Alternatively, a checkerboard dilution series was employed. Cells were cultured for three days in the presence of the drugs. Untreated cells were included as controls. The percentage of surviving cells was determined using sulforhodamine B (SRB, Sigma-Aldrich, St Louis, Mo.), a protein binding dye. Cellular protein was precipitated in each well by the addition of 50 μl of 50% cold trichloroacetic acid. After 1 hour, the plates were washed extensively in water and dried. SRB dye reagent (0.4% SRB in 1% acetic acid, 80 μl per well) was added and plates were kept at room temperature for ten minutes. Plates were then washed thoroughly in 1% acetic acid and dried. Cell-associated dye was dissolved in 10 mM Tris (150 μl) and the absorbance was read at 540 nm in a microtiter plate reader. The concentration of compound that caused a fixed percentage inhibition of growth was determined by plotting cell survival (relative to untreated cells) against the compound dose.

Setting [1] is: Homo sapiens, HCT-116, 72 h, HCT116 cells.

The term IC50 denotes the concentration that inhibits the measured activity by half. On to `CCOc1cc2ncc(C#N)c(Nc3ccc(F)c(Cl)c3)c2cc1NC(=O)C=CCN(C)C` [EKB-569, 4-dimethylamino-but-2-enoic acid [4-(3-chloro-4-fluoro-phenylamino)-3-cyano-7-ethoxy-quinolin-6-yl]-amide], for which the IC50 under setting [1] is 0.31 µg/mL.

Usually inhibition stands for the drop in the measured response relative to a control, in per cent. Take `CO[C@H]1C[C@@H]2CC[C@@H](C)[C@@](O)(O2)C(=O)C(=O)N2CCCC[C@H]2C(=O)O[C@H]([C@H](C)C[C@@H]2CC[C@@H](OC(=O)C(C)(CO)CO)[C@H](OC)C2)CC(=O)[C@H](C)/C=C(\C)[C@@H](O)[C@@H](OC)C(=O)[C@H](C)C[C@H](C)/C=C/C=C/C=C/1C` [CCI-779, rapamycin 42-ester with 3-hydroxy-2-(hydroxymethyl)-2-methylpropionic acid]: the “high doses that inhibit the cells (cells somewhat resistant)” value (HCT 116 cells, CCI-779 alone) is 5 to 10 µg/mL. For the setting “Homo sapiens, HCT-116, 72 h, HCT116 cells, 3 days, 0.026 μg/ml CCI-779 alone”, the inhibition at 0.026 µg/mL came out at 36%. For the same compound, the inhibition at 2.08 µg/mL (Homo sapiens, HCT-116, 72 h, HCT116 cells, 3 days, 2.08 μg/ml CCI-779 alone, read-out: inhibition of growth when administered alone) was 41%. Further, the IC50 under setting [1] was 4.3 µg/mL.
